Row | SMILES | melting point
1 | CC(CCCCc1ccccc1)c1cc(O)c2c(c1)OC(C)(C)C1CCC(=O)C=C21 (stereo not drawn) | 204 to 208 °C
2 | C[C@]1(Cn2ccnc2)[C@H](C(=O)O)N2C(=O)C[C@H]2S1(=O)=O | 161 °C
3 | NC(Cc1ccccc1)C(O)C1=NCCS1 (mixture of isomers) | 82.3 to 90 °C
4 | O=C(O)c1cccc(S(=O)(=O)Cc2c(O[C@H](Cn3ccnc3)c3ccccc3)ccc3c2CCCC3=O)c1 | 236 to 238 °C
5 | Cc1ccccc1CNCCNCc1ccccc1C | 51 to 52 °C
6 | CC1CCNC(C)C1(C)CCCO (stereo not drawn) | 89 to 91 °C
7 | CCn1ncc2c(N(C)Cc3ccccc3)c3ccccc3nc21 | 175 to 177 °C
8 | CC(C)C=Cc1c(C(C)C)nc(C(C)C)c(CO)c1-c1ccc(F)cc1 | 112 °C
9 | Cc1ccc2c(C#N)cn(-c3ccc(C(C)C)cc3Br)c2n1 | 176 °C
10 | N#CC(C#N)=Cc1ccccc1F | 117 to 118 °C
11 | C#CCN1C(=O)COc2cc(F)c(-n3nc4n(c3=O)CCS4)cc21 | 211 to 213 °C
12 | O=C(Nc1ccncc1)c1ccc(C2=NCCN2)cc1 | > 250 °C
13 | Clc1ccc2ccc(COc3cccc(CN4CCc5cccc(CCc6nnn[nH]6)c54)c3)nc2c1 | 137 to 140 °C
14 | Nc1ccc(C2=NNC(=O)CC2)cc1[N+](=O)[O-] | > 330 °C
15 | O=C(c1ccccc1)N1Cc2c(-c3noc(C4CC4)n3)ncn2-c2ccccc21 | 198 to 199 °C
16 | O=C1CCC2=C(CCc3cccc(Br)c32)N1 | 189 to 190 °C
17 | CN1CCC(=C2c3ccccc3C=Cc3ccc(C#N)cc32)CC1 | 141 to 146 °C
18 | CCC(C)(C)NC(Nc1cc(OC)cc(OC)c1)=C(C#N)S(=O)(=O)c1ccc(Cl)cc1 | 189 to 190 °C
19 | O=c1[nH]c(=O)n(COc2ccccc2)cc1F | 150 °C
20 | CCOCN1C(C)=C(C(=O)OCC)C(c2cccc([N+](=O)[O-])c2)C(C(=O)OCCBr)=C1C (stereo not drawn) | 102 to 104 °C
21 | CC(CN1CC(=O)N(CN2CCOCC2)C(=O)C1)N1CC(=O)NC(=O)C1 (stereo not drawn) | 162 to 165 °C
22 | O=C/C=C/c1csc(Nc2ccccc2)n1 | 142 to 143 °C
23 | O=S(=O)(c1ccc(Cl)cc1)c1ccc(NCc2nnn[nH]2)cc1 | 102 to 105 °C
24 | COc1cc2c(c(OC)c1OC)-c1ccc(O)cc1[C@@H](NC(C)=O)CC2 | 157 °C
25 | Oc1ccc2c(c1)CCCC(c1ccccc1)=C2c1ccc(OCCCCCCl)cc1 | 200 to 202 °C
26 | COc1ccc(N(CCN2CCC(C(=O)c3ccc(F)cc3)CC2)C(=O)c2ccc(C#N)cc2)cc1 | 136 to 149 °C

Row | SMILES | melting point
27 | O=C(c1ccccc1)N1CCc2[nH]c3c(cnc4cc(Cl)ccc43)c2C1 | 275 °C
28 | Nc1cccc(OCc2csc(-c3ccccc3)n2)c1 | 75 to 80 °C
29 | CC(=O)Oc1cccc2c1C(=O)c1c(OC(C)=O)cc(-c3nc4ccccc4n3C)cc1C2=O | 279 to 280 °C
30 | Nc1nc(OC2CCC2)c2ncn(C3CC(F)C(CO)O3)c2n1 (stereo not drawn) | 139 to 140 °C
31 | CC(=O)c1ccc(Cl)c(S(=O)(=O)Nc2ccccc2)c1 | 142 °C
32 | COc1ccc(C)nc1I | 45 to 50 °C
33 | CC(=O)c1c(C)[nH]c(-c2ccc(Cl)cc2)c1N | 205 to 208 °C
34 | Cc1ccc(Cl)c(Nc2ccccc2-c2nnc(NC#N)o2)c1Cl | > 215 °C
35 | O=C(NO)[C@H](CNS(=O)(=O)c1ccc(OCc2ccccc2)cc1)N1CCOCC1 | 142 °C
36 | CCOC(=O)N1CCc2nnc(N(C)N)cc2C1 | 121 to 123 °C
37 | CCOc1ccc(S(=O)(=O)N[C@H](CCCN2C(=O)c3ccccc3C2=O)C(=O)O)cc1 | 151 to 152 °C
38 | COc1nccc(C)c1NC(=O)c1cccnc1NC1CC1 | 151 to 152 °C
39 | Oc1ccc2cc(-c3cnc(Cc4ccccc4)o3)ccc2c1 | 200 to 202 °C
40 | CC(=O)NNc1ccc(NC(=S)Nc2ccc(NNC(C)=O)cc2)cc1 | 234 to 236 °C
41 | CCOC(=O)c1nc2ccc(C(C(C)C)n3ccnc3)cc2[nH]c1=O (stereo not drawn) | 185 °C
42 | Cc1ccc(-c2cc3onc(-c4ccccc4)c3c(=O)n2C)cc1 | 155 to 156 °C
43 | CN(C)C(=O)c1cc(C(C)(C)C)c(O)c(C(C)(C)C)c1 | 173 to 174 °C
44 | CCn1cc(C(=O)O)c(=O)c2cc(F)c(N3CCNC(c4cc(C)cs4)C3)cc21 (stereo not drawn) | 230 °C
45 | COC(=O)c1cccc(OS(=O)(=O)C(F)(F)F)c1O | 91.8 to 92.3 °C
46 | O=C(O)c1ccc(CN(C(=O)Nc2cc(C(F)(F)F)cc(C(F)(F)F)c2)c2ccc(C3CCCCC3)cc2)cc1 | 148 to 150 °C
47 | c1ccc2c(c1)Cc1ccccc1N1CCNCC21 (stereo not drawn) | 128 to 130 °C
48 | CN(c1cc(OCCCS(C)(=O)=O)cc2cc(C3=NCC(CN4CCOCC4)S3)[nH]c12)S(=O)(=O)c1ccccn1 (stereo not drawn) | 168 to 169 °C
49 | Nc1ccnn1-c1c(Cl)cc(C(F)(F)F)c(Cl)c1Cl | 109 to 114 °C
50 | CC(C)N1C(=O)C(NC(=O)CCC2CCCCC2)N=C(N(C)C)c2ccccc21 (stereo not drawn) | 209 to 210 °C
51 | CC(=O)c1ccccc1Nc1ccc(O)cc1 | 168 to 169 °C
52 | CC(C)(C)[C@H]1CC[C@H](Nc2ncc(CCc3cccnc3)c3ccccc23)CC1 | 124 to 125 °C

Row | SMILES | melting point
53 | O=C(c1ccc(-c2ncn[nH]2)cc1Cl)N1Cc2cccn2Cc2ccccc21 | 174 to 177 °C
54 | O=c1[nH]c2ccccc2cc1-c1csc(-c2ccncc2)n1 | 241 to 243 °C
55 | Cc1c(-c2ccc(O)cc2)sc(C=O)c1-c1ccc(O)c(F)c1 | 223 to 226 °C
56 | CC(=O)c1nc2ccc(S(=O)(=O)c3ccccc3)cc2cc1O | 179 to 180 °C
57 | CC(C)(C)c1cc(-c2nnc(NN)s2)cc(C(C)(C)C)c1O | 109 to 122 °C
58 | OC(CCCN1CC=C(c2ncco2)CC1)c1ccc(F)cc1 (stereo not drawn) | 100 to 103 °C
59 | CCCS(=O)(=O)Nc1ccc2c(c1)S(=O)(=O)C=C(c1c(O)c3cc(F)ccc3n(CCC3CC3)c1=O)N2 | 145 to 150 °C
60 | O=S(=O)(Nc1cccc(OCc2csc(-c3ccccc3)n2)c1)C(F)(F)F | 113 to 115 °C
61 | CC(C)(C)c1ccc(C(=O)CCCCCc2ccccc2)cc1NC(=O)CC1c2ccccc2Oc2ccccc21 | 119 to 120 °C
62 | CCCCOC(=O)c1ccc(Nc2ncc(C(=O)OCC)c(=O)[nH]2)cc1 | 281 to 283 °C
63 | CN1CCCC(Cn2cc(-c3ccccc3)c(O)n2)C1 (stereo not drawn) | 132 °C
64 | O=C(O)c1ccc(-c2nc(-c3ccccc3)co2)cc1 | 275 to 276 °C
65 | O=C(NCc1ccccn1)c1ccc2cnccc2n1 | 123 to 125 °C
66 | CCc1nn(C2CCC2)c2cc(C(=O)O)ccc12 | 148 to 150 °C
67 | CCC(=O)Nc1cc(-c2sc(C(C)=O)nc2-c2cccc(C)c2)ccn1 | 121 to 123 °C
68 | CC(C)(C)OC(=O)Nc1cc(OC(C)(C)C)c(C#Cc2ccc(F)cc2)cc1[N+](=O)[O-] | 201 °C
69 | Cc1cccc(N2CCN(Cc3ccc4c(c3)NCCN4)CC2)c1 | 135 to 136 °C
70 | CC1(C)CCC(C)(C)c2cc(C3NC(=O)NC3=O)ccc21 (stereo not drawn) | 213 to 214 °C
71 | Nc1ccn(C2COC(CO)C2O)c(=O)n1 (stereo not drawn) | 235 °C
72 | Clc1ccc(OCSc2ncc(Cl)cn2)cc1 | 120 °C
73 | COc1ccc(C2(CNC(=O)Nc3c(C(C)C)cccc3C(C)C)CCCC2)cc1 | 144 to 147 °C
74 | Cc1c(CP(=O)(OCCCl)OCCCl)cc(C(C)(C)C)c(O)c1C | 133 to 135 °C
75 | Cc1c(-c2ccccc2)sc(N2C(=O)c3ccccc3C2=O)c1C(=O)c1ccc(Cl)cc1 | 223 to 225 °C
76 | Cc1cccc(-c2nc3cccnn3c2-c2ccnc(NC(=O)N3CCc4ccccc4C3)c2)c1 | 122 to 124 °C
77 | CC(C)(C)C(=O)N[C@H]1CC[C@H](CCN2CCC(c3cccc4c3CCO4)CC2)CC1 | 192 °C
78 | CC(C)Cn1nc(-c2ccc(F)cc2F)cc(COS(C)(=O)=O)c1=O | 86.7 to 88.6 °C

Row | SMILES | melting point
79 | CC(C)n1nc(O)nc1N(C)C | 111 to 112 °C
80 | CN1C(=O)CC[C@]2(C)c3ccc(-c4ccc(Cl)cc4)cc3CC[C@@H]12 | 192 °C
81 | COc1ccc(C(=C(c2ccc(OC)cc2)C(F)(F)F)c2ccc(OCCN(C)C)cc2)cc1 | 77 to 79 °C
82 | O=C1NCCc2c1c1cccc3c1n2CCO3 | 298 to 300 °C
83 | CCCCCCCCCCCCCCCCCC(=O)NCNC(=O)CCSc1ccc(O)cc1 | 172 °C
84 | Nc1nc(Cl)cc(NCc2ccccc2F)n1 | 130 to 133 °C
85 | O=C(O)COc1nnc(-c2ccc3c(c2)CCO3)o1 | 151 to 153 °C
86 | CCOC(=O)C1=C(C)Nc2ccnc(OC(C)C)c2C1c1ccc(C(F)(F)F)cc1 (stereo not drawn) | 117 to 120 °C
87 | Cc1oc(-c2cccs2)nc1COc1ccc(CCCCn2ccnc2)cc1 | 85 to 86 °C
88 | O=c1oc2c(c(O)c1C(c1cccc(S(=O)(=O)Nc3ccccc3)c1)C1CC1)CCCCCC2 (stereo not drawn) | 200 to 203 °C
89 | CC(C)(C)c1cc(NC(=O)c2csc(-c3ccc(N)cc3)n2)cc(C(C)(C)C)c1O | 267 to 268 °C
90 | CCCCCCCCCC1OC1CO (stereo not drawn) | 55 to 56 °C
91 | Cc1[nH]c2c(ccc3sc4ccccc4c32)c1C=O | 192 to 194 °C
92 | CN1Cc2c(C#CCO)ncn2-c2ccccc2C1=O | 240 to 241 °C
93 | COc1ccc(Cc2ccc3[nH]c(=S)[nH]c3c2)cc1OC | 248 to 250 °C
94 | Cn1cnc(COc2nn3c(-c4ccccc4)nnc3cc2N2CCOCC2)n1 | 205 to 206 °C
95 | Cc1cc(=O)c(O)c(C)o1 | 161 to 163 °C
96 | O=c1nc(NCN2CCOCC2)c(F)cn1CN1CCOCC1 | 156 to 158 °C
97 | CC(C)CC(=O)c1cc(-c2ccccc2)no1 | 62 to 64 °C
98 | NNC(=S)N1CCN(c2nc3cccccc-3n2)CC1 | 224 to 228 °C
99 | Cn1nc(-c2c(Cl)cccc2Cl)nc1-c1cccs1 | 161 to 163 °C
100 | Cc1cnc(N2CCC(c3ccc(S(N)(=O)=O)cc3)CC2)n1C | 256 to 257 °C
101 | CCCCCCC(=O)Nc1cccc2c1C(=O)N(C1(C)CCC(=O)NC1=O)C2=O (stereo not drawn) | 172 to 174 °C
102 | CC(=CN(C)C)C(=O)c1cccc(Cl)c1 | 206 to 208 °C
103 | NS(=O)(=O)c1ccc(-n2nc(C(F)(F)F)c3c2-c2ccccc2CC3)cc1 | 257 to 258 °C

— a melting point compilation (Tetko et al.; mined from patent text by program, amines drawn as free bases though some values may be those of a salt)
